Experimental data: patent publication US20120152149A1, “USE OF 1,3-DIOLS AS BIOCIDES” (BASF SE, priority 2009, published 2012)

Assays:
Assay type in all cases: cell-based
[1] = test system: E. coli ATCC 10536, S. aureus ATCC 6538, P. aeruginosa ATCC 15442; assay: Preservation stress test, example formulation 1 (standard emulsion O/W), bacteria together; details: 1% active substance, P. aeruginosa (one time series)
Procedure: Preservation stress tests (PSTs) were carried out in order to determine the preserving activity of the diols. In the preservation stress test, this is simulated through artificial loadings with microorganisms. These can either be inoculated as mixed population or individually in mixtures independent of one another. The inoculated product samples are incubated under defined conditions and, after defined times, samples are taken in order to determine the germ loading. In the case of adequate preservation, the number of microorganisms should, depending on the type, either decrease or remain constant in order to satisfy the requirements specified, e.g. in Ph. Eur. 6.0. To investigate the preserving effect of the diols, application-typical amounts of the diols were incorporated into example formulations. […] [table] These example formulations were used to prepare various mixtures which each comprised 1% active substance or comprised water instead of the active substance as placebo mixtures. These mixtures were in each case inoculated with the test germs such that a germ loading of 10^5-10^6 CFU/g was present in the test mixture. The bacteria were either used individually for the inoculation or as a mixed culture. To determine the starting germ count, immediately after inoculation, an aliquot was taken, diluted in dilution medium (phosphate buffer, 0.07 molar pH 7.4 (+/−0.2), with 1% Tween 80+0.3% soya lecithin), and the surviving germ count was determined in the dilution stages 10^−1 to 10^−3. The inoculated product samples then incubated for a total of 28 d at 20-25° C. After 2 d, 7 d, 14 d and after 28 d, aliquots were taken and diluted in dilution medium (phosphate buffer, 0.07 molar pH 7.4 (+/−0.2), with 1% Tween 80+0.3% soya lecithin). The surviving germ counts were determined in the dilution stages 10^−1 to 10^−4. The reference point taken for determining the reduction in germ count was the respective initial value of the sample. The results were given as logarithmic reductions.

[2] = test system: E. coli ATCC 10536; assay: Suspension test EN 1040, bactericidal activity; details: 1000 ppm of active substance
Procedure: (§1) The bactericidal activity of the substances of this invention was carried out in a suspension test corresponding to the European standard EN 1040 and compared with the activities of customary commercial products. For this, only relatively small modifications were made. The substances of the formula (1) were dissolved in water or ethanol to give a 1% strength stock solution. For determining the bactericidal activities, the test mixtures were selected such that 1000 ppm of active substance was present in an aqueous solution. The procedure was the same with the comparison samples. For the results shown in table 2, the test mixtures were inoculated with the following bacterial strains such that the stated germ densities were present in the test mixtures. E. coli ATCC 10536 1−2×10^7 CFU/ml The test mixtures were incubated at room temperature (22° C.+/−2° C.). After defined contact times, aliquots of 1 ml were taken in order to determine the surviving germ count. For the deactivation of the microbicidal activity of the diols, the aliquots were diluted in 1:10 dilution steps in a solution of TS broth with 10% Tween, 3% lecithin, 0.1% histidines and 0.5% sodium thiosulfate and the 10^−2 and 10^−3 dilution stages were used for determining the surviving germ count. For this purpose, corresponding aliquots were plated out on Caso medium with inhibitor (Merck) and incubated at 37° C. for 24 h. The ascertained surviving germ counts were in each case compared with a mixture containing water (water control) by determining the logarithmic reduction in the surviving germ counts based on the water control.

[3] = test system: S. aureus ATCC 6538; assay: Suspension test EN 1040, bactericidal activity; details: 1000 ppm of active substance
Procedure: as §1, with “S. aureus” for “E. coli”, “6538” for “10536”

[4] = test system: P. aeruginosa ATCC 15442; assay: Preservation stress test, example formulation 2 (roll-on deodorant formulation); details: 1% active substance
[5] = test system: C. albicans ATCC 10231; assay: as above; details: 1% active substance
[6] = test system: A. niger ATCC 6275; assay: Suspension test EN 1275, fungicidal activity against molds; details: 1% active substance in the test

CCCCCC(CO)(CO)CCC [PPPD, 2-pentyl-2-propylpropane-1,3-diol]
Microbicidal activity given as logarithmic reduction in germ count ([1]; 48 h): ≧3 log. Red.
Microbicidal activity given as logarithmic reduction in germ count ([1]; 7 d): 5 log. Red.
Microbicidal activity given as logarithmic reduction in germ count ([1]; 14 d): 5 log. Red.
Microbicidal activity given as logarithmic reduction in germ count ([1]; 28 d): 5 log. Red.
Microbicidal activity given as logarithmic reduction in germ count ([2]; contact time 5 min): >5 log. red.
Microbicidal activity given as logarithmic reduction in germ count ([2]; contact time 30 min): >5 log. red.
Microbicidal activity given as logarithmic reduction in germ count ([2]; contact time 24 h): >5 log. red.
Microbicidal activity given as logarithmic reduction in germ count ([3]; contact time 5 min): <1 log. red.
Microbicidal activity given as logarithmic reduction in germ count ([3]; contact time 30 min): 1.5 log. red.
Microbicidal activity given as logarithmic reduction in germ count ([3]; contact time 24 h): >5 log. red.
Microbicidal activity given as logarithmic reduction in germ count ([4]; 48 h): 5 log. Red.
Microbicidal activity given as logarithmic reduction in germ count ([4]; 7 d): 5 log. Red.
Microbicidal activity given as logarithmic reduction in germ count ([4]; 14 d): 5 log. Red.
Microbicidal activity given as logarithmic reduction in germ count ([4]; 28 d): 5 log. Red.
Microbicidal activity given as logarithmic reduction in germ count ([5]; 48 h): 0 log. Red.
Microbicidal activity given as logarithmic reduction in germ count ([5]; 7 d): 0 log. Red.
Microbicidal activity given as logarithmic reduction in germ count ([5]; 14 d): 0 log. Red.
Microbicidal activity given as logarithmic reduction in germ count ([6]; contact time 24 h): 2.9 log. red.
Microbicidal activity given as logarithmic reduction in germ count ([6]; contact time 7 d): >4 log. red.
